Measured values taken from patent US6376543B1, “Secondary cataract inhibitor” (Kissei Pharmaceuticals Co., Ltd., priority 1996, dated 2002).

System: rat lens epithelial cells
Test: Inhibitory activity on lens epithelial cell proliferation
Assay type: cell-based
Conditions: rat lens epithelial cells cultured 4 days in DMEM with 10% FBS and various concentrations of Tranilast; viable cells counted by hemocytometer; FIG. 1
Protocol: Inhibitory Activity on Lens Epithelial Cell Proliferation
(1) Culture of Rat Lens Epithelial Cells
Rat crystalline lens was harvested and cut into narrow strips. The strips were adhered to a culture plate and subcultured in Dulbecco's modified Eagle's Medium (DMEM) containing 10% fetal calf serum (FBS) at 37° C. in an atmosphere of 5% CO2 in air for 4 days. On day 4 (at the point that lens epithelial cells had migrated and profilated from crystalline lens tissues), the medium was aspirated and cells were gently washed with phosphate-buffered saline (PBS(−)). Then, the PBS(−) was aspirated, an aliquot of 0.25% trypsin solution containing 0.02% EDTA was added to the culture plate, and the morphology of the cells was observed under phase-contrast microscopy. When cells were going to be round, an equal value of DMEM containing 10% FBS was added to the trypsin solution to stop the action of trypsin. […]
Cell suspension (2×10^4 cells/0.1 ml) and DMEM medium (1.9 ml) containing various concentration of Tranilast and 10% FBS were added to a culture plate (60 mm), and cultured at 37° C. in an atmosphere of 5% CO2 in air. […] After harvesting cells from the plate by pipetting using a pasture pipette, the number of viable cells was counted using a hemocytometer. […]
Mean and standard variation values of each group were calculated. […]

`COc1ccc(C=CC(=O)Nc2ccccc2C(=O)O)cc1OC` [Tranilast, N-(3,4-dimethoxycinnamoyl)anthranilic acid] was tested, and the “proliferation of lens epithelial cells (number of viable cells)” value was “significantly suppressed the proliferation of lens epithelial cells in a concentration-dependent manner”.
